Test results reported in ChEMBL document CHEMBL3991601, “The target landscape of clinical kinase drugs” (Science, 2017).
Calls of active or inactive are those of the source. For most assays here, no stated cut-off is given here; in the data, actives have a measured Kd and inactives only a lower limit.

The compounds below were run against Calcium/calmodulin-dependent protein kinase type II subunit delta (Homo sapiens, UniProt Q13557).
Calcium/calmodulin-dependent protein kinase type II subunit delta, sequence (Q13557 whole entry): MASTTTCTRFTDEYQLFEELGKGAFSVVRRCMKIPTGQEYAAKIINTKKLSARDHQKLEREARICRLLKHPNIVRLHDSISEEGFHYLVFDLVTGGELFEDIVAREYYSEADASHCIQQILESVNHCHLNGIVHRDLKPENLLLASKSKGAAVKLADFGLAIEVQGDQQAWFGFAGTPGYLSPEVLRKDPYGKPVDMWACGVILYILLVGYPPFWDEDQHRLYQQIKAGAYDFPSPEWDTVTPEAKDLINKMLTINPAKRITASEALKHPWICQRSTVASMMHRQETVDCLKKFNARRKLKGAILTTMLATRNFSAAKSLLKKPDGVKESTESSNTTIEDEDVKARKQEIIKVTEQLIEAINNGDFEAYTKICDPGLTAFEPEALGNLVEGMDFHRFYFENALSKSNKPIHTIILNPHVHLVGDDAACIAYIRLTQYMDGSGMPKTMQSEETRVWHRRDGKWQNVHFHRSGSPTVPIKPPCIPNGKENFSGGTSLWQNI
In the case of `OCCn1cc(-c2cnc3nnn(Cc4ccc5ncccc5c4)c3n2)cn1` [PF-04217903], the Kd is reported as > 30 µM (inactive). With `CNC(=O)c1ccc(C)c(-n2c(C)cc(OCc3ccc(F)cc3F)c(Br)c2=O)c1` [PH-797804] the Kd was > 30 µM (inactive). In the case of `C=CC(=O)N1CCC(Oc2cc3c(Nc4ccc(Cl)c(Cl)c4F)ncnc3cc2OC)CC1` [POZIOTINIB], the Kd is reported as > 30 µM (inactive).

These compounds were tested against T1, Discoidin domain-containing receptor 2 (Homo sapiens, UniProt Q16832).
T1 sequence (Q16832 whole entry): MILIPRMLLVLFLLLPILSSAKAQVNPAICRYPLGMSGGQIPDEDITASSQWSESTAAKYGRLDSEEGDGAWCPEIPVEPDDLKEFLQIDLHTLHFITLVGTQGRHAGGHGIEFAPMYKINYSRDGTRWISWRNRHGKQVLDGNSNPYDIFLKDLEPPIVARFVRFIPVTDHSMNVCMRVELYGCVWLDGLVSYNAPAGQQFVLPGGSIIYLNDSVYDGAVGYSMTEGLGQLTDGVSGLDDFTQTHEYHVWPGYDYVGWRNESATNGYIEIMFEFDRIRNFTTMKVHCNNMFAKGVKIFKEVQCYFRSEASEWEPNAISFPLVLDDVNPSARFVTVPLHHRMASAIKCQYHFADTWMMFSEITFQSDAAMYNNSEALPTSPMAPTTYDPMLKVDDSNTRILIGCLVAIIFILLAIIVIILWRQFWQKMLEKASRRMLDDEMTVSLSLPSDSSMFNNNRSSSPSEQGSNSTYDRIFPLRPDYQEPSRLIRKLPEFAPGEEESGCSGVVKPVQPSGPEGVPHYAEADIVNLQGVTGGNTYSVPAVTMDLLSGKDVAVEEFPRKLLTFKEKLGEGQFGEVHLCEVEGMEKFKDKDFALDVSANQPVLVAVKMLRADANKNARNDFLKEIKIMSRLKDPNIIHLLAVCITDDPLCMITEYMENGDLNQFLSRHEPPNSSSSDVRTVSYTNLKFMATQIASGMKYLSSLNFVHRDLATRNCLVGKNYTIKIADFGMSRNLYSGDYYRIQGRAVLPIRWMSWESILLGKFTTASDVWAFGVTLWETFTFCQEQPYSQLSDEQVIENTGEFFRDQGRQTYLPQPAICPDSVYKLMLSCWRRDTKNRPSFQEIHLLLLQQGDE
With `Cc1nc(N)sc1-c1ccnc(Nc2ccc(N3CCOCC3)cc2)n1` [CYC-116] the Kd was > 30 µM (inactive). For `Cc1cc(Nc2cc(N3CCN(C)CC3)nc(/C=C/c3ccccc3)n2)n[nH]1` [ENMD-2076], the Kd was 3.42 µM (active). With `OCCn1cc(-c2cnc3nnn(Cc4ccc5ncccc5c4)c3n2)cn1` [PF-04217903] the Kd was > 30 µM (inactive). `CNC(=O)c1ccc(C)c(-n2c(C)cc(OCc3ccc(F)cc3F)c(Br)c2=O)c1` [PH-797804] was tested, and the Kd was > 30 µM (inactive). In the case of `C=CC(=O)N1CCC(Oc2cc3c(Nc4ccc(Cl)c(Cl)c4F)ncnc3cc2OC)CC1` [POZIOTINIB], the Kd is reported as > 30 µM (inactive). `O=C(Nc1cccc(Cl)c1)Nc1ncc(CCNc2ncnc3ccsc23)s1` [SNS-314] was tested, and the Kd was 0.423 µM (active).

Each compound was assayed against T2, Cysteine--tRNA ligase, cytoplasmic (Homo sapiens, UniProt P49589).
T2 sequence (P49589 whole entry): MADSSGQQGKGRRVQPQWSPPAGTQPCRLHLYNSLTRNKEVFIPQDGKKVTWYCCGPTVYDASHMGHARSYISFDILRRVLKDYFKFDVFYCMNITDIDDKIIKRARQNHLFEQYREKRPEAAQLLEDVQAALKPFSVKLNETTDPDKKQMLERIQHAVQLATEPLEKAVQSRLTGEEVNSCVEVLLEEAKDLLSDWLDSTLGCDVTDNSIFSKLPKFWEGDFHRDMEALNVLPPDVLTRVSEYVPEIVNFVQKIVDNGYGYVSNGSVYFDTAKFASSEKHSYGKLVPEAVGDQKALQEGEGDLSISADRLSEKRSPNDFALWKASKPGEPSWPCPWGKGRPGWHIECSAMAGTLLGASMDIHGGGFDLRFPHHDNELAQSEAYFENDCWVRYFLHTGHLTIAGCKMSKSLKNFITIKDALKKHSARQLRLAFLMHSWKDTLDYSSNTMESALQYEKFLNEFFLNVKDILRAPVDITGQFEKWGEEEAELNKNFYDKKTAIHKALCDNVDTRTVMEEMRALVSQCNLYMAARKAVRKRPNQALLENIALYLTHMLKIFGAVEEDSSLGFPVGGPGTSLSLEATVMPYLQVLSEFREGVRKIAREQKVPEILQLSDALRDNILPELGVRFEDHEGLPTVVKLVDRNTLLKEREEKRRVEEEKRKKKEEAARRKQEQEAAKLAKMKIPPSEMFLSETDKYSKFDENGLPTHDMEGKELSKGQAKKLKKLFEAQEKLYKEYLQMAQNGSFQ
For `Cc1nc(N)sc1-c1ccnc(Nc2ccc(N3CCOCC3)cc2)n1` [CYC-116], the Kd was > 30 µM (inactive). For `CN1CCN(c2ccc3nc(-c4c(N)c5c(F)cccc5[nH]c4=O)[nH]c3c2)CC1` [DOVITINIB], the Kd was > 30 µM (inactive). In the case of `Cc1cc(Nc2cc(N3CCN(C)CC3)nc(/C=C/c3ccccc3)n2)n[nH]1` [ENMD-2076], the Kd is reported as > 30 µM (inactive). For `CCn1c(-c2nonc2N)nc2c(C#CC(C)(C)O)ncc(OC[C@H]3CCCNC3)c21` [GSK-690693], the Kd was > 30 µM (inactive). `Cc1cn(-c2cc(NC(=O)c3ccc(C)c(Nc4nccc(-c5cccnc5)n4)c3)cc(C(F)(F)F)c2)cn1` [NILOTINIB] was tested, and the Kd was > 30 µM (inactive). In the case of `OCCn1cc(-c2cnc3nnn(Cc4ccc5ncccc5c4)c3n2)cn1` [PF-04217903], the Kd is reported as > 30 µM (inactive). In the case of `O=C(Nc1cccc(Cl)c1)Nc1ncc(CCNc2ncnc3ccsc23)s1` [SNS-314], the Kd is reported as > 30 µM (inactive). With `Nc1nc(N)c2nc(-c3cccc(O)c3)c(-c3cccc(O)c3)nc2n1` [TG100-115] the Kd was > 30 µM (inactive).

The compounds below were run against Casein kinase I isoform alpha (Homo sapiens, UniProt P48729).
Casein kinase I isoform alpha, sequence (P48729 whole entry, canonical isoform): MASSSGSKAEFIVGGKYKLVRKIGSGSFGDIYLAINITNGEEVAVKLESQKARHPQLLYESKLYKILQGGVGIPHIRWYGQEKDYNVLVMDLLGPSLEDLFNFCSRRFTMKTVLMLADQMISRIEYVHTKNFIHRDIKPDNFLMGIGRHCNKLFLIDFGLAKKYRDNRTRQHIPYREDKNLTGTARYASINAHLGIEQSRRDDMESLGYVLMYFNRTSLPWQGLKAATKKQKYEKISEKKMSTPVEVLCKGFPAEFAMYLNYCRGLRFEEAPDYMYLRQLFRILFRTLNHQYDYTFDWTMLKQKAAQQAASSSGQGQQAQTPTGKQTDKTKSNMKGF
For `CNC(=O)c1ccc(C)c(-n2c(C)cc(OCc3ccc(F)cc3F)c(Br)c2=O)c1` [PH-797804], the Kd was > 30 µM (inactive). `C=CC(=O)N1CCC(Oc2cc3c(Nc4ccc(Cl)c(Cl)c4F)ncnc3cc2OC)CC1` [POZIOTINIB] was tested, and the Kd was > 30 µM (inactive).

These compounds were tested against T3, Serine/threonine-protein kinase TAO3 (Homo sapiens, UniProt Q9H2K8).
T3 sequence (Q9H2K8 whole entry): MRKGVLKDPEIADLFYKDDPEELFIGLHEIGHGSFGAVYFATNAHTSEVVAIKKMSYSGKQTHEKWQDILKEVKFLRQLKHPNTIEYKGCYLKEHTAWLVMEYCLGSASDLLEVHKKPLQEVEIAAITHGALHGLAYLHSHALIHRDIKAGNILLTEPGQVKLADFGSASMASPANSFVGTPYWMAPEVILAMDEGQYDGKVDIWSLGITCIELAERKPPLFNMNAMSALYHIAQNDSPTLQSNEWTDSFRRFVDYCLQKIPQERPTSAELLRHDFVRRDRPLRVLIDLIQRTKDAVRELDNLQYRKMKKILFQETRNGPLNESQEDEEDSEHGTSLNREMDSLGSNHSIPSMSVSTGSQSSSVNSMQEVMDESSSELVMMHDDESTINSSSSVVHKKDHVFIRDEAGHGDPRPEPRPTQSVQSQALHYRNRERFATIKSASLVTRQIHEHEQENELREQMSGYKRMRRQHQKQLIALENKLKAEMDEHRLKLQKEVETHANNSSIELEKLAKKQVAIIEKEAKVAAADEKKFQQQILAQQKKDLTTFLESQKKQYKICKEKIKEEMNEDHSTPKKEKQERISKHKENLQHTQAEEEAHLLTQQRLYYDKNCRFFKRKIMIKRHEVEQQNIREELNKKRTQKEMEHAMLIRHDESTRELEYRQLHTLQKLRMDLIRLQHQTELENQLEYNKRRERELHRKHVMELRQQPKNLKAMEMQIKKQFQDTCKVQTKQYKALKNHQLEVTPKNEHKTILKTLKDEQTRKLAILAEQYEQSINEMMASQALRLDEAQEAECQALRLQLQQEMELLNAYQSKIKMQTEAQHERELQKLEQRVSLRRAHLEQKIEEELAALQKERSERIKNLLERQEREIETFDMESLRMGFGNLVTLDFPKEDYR
In the case of `OCCn1cc(-c2cnc3nnn(Cc4ccc5ncccc5c4)c3n2)cn1` [PF-04217903], the Kd is reported as > 30 µM (inactive). With `CNC(=O)c1ccc(C)c(-n2c(C)cc(OCc3ccc(F)cc3F)c(Br)c2=O)c1` [PH-797804] the Kd was > 30 µM (inactive). For `C=CC(=O)N1CCC(Oc2cc3c(Nc4ccc(Cl)c(Cl)c4F)ncnc3cc2OC)CC1` [POZIOTINIB], the Kd was > 30 µM (inactive). With `O=C(Nc1cccc(Cl)c1)Nc1ncc(CCNc2ncnc3ccsc23)s1` [SNS-314] the Kd was > 30 µM (inactive).

These compounds were tested against Ribosomal protein S6 kinase alpha-6 (Homo sapiens, UniProt Q9UK32).
Ribosomal protein S6 kinase alpha-6, sequence (Q9UK32 whole entry): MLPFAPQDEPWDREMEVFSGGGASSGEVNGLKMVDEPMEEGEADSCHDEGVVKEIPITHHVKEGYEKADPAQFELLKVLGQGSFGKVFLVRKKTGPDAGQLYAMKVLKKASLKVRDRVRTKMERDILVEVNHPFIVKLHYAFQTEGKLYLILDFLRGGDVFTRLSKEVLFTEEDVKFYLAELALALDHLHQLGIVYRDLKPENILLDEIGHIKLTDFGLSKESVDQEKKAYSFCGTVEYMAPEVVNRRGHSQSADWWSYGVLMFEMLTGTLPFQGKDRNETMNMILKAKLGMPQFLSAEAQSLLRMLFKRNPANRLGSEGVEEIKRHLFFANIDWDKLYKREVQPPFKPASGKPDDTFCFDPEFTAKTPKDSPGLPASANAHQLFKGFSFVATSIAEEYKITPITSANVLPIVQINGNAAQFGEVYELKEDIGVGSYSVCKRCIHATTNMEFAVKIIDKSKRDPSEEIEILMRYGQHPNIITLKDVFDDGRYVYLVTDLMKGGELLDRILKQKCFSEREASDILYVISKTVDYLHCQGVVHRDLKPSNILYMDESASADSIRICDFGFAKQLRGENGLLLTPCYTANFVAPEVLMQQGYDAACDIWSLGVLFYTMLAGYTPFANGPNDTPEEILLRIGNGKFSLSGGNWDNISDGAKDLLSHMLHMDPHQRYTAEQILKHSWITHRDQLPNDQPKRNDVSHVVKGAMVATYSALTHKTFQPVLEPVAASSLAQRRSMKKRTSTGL
In the case of `Cc1nc(N)sc1-c1ccnc(Nc2ccc(N3CCOCC3)cc2)n1` [CYC-116], the Kd is reported as > 30 µM (inactive). For `OCCn1cc(-c2cnc3nnn(Cc4ccc5ncccc5c4)c3n2)cn1` [PF-04217903], the Kd was > 30 µM (inactive). With `CNC(=O)c1ccc(C)c(-n2c(C)cc(OCc3ccc(F)cc3F)c(Br)c2=O)c1` [PH-797804] the Kd was > 30 µM (inactive). `C=CC(=O)N1CCC(Oc2cc3c(Nc4ccc(Cl)c(Cl)c4F)ncnc3cc2OC)CC1` [POZIOTINIB] was tested, and the Kd was > 30 µM (inactive). For `O=C(Nc1cccc(Cl)c1)Nc1ncc(CCNc2ncnc3ccsc23)s1` [SNS-314], the Kd was > 30 µM (inactive).

These compounds were tested against Casein kinase I isoform gamma-1 (Homo sapiens, UniProt Q9HCP0).
Casein kinase I isoform gamma-1, sequence (Q9HCP0 whole entry, canonical isoform): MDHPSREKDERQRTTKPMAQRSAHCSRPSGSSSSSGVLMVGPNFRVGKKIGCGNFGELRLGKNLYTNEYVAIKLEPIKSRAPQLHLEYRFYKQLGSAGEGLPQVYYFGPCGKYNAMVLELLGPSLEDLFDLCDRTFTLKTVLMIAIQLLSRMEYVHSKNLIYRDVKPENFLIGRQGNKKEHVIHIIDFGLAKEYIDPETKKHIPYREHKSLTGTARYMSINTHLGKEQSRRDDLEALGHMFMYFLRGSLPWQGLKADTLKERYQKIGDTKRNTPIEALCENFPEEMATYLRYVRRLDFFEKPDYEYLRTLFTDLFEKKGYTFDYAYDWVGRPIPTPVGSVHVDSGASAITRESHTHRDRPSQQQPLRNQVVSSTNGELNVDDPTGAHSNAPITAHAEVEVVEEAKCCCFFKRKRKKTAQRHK
With `OCCn1cc(-c2cnc3nnn(Cc4ccc5ncccc5c4)c3n2)cn1` [PF-04217903] the Kd was > 30 µM (inactive). With `CNC(=O)c1ccc(C)c(-n2c(C)cc(OCc3ccc(F)cc3F)c(Br)c2=O)c1` [PH-797804] the Kd was > 30 µM (inactive). In the case of `C=CC(=O)N1CCC(Oc2cc3c(Nc4ccc(Cl)c(Cl)c4F)ncnc3cc2OC)CC1` [POZIOTINIB], the Kd is reported as > 30 µM (inactive).

These compounds were tested against Glycogen synthase kinase-3 alpha (Homo sapiens, UniProt P49840).
Glycogen synthase kinase-3 alpha, sequence (P49840 whole entry): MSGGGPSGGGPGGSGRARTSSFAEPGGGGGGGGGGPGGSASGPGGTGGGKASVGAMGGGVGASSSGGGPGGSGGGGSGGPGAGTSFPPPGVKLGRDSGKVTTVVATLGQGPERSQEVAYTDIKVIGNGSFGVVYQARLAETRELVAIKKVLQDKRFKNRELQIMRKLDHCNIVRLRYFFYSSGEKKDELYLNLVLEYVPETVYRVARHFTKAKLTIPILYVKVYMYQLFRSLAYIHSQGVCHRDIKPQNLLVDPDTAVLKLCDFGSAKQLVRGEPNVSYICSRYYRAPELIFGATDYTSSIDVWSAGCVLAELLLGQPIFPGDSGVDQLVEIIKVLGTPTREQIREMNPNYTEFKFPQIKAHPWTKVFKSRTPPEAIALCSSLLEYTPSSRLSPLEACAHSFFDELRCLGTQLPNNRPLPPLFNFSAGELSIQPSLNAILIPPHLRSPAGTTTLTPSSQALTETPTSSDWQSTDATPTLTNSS
For `CNC(=O)c1ccc(C)c(-n2c(C)cc(OCc3ccc(F)cc3F)c(Br)c2=O)c1` [PH-797804], the Kd was > 30 µM (inactive). For `C=CC(=O)N1CCC(Oc2cc3c(Nc4ccc(Cl)c(Cl)c4F)ncnc3cc2OC)CC1` [POZIOTINIB], the Kd was > 30 µM (inactive).

Each compound was assayed against T4, dCTP pyrophosphatase 1 (Homo sapiens, UniProt Q9H773).
T4 sequence (Q9H773 whole entry): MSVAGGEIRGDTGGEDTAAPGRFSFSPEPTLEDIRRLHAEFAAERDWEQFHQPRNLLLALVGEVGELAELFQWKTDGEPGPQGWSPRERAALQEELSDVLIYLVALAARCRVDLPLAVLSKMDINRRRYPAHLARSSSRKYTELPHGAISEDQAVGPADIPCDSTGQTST
In the case of `Cc1nc(N)sc1-c1ccnc(Nc2ccc(N3CCOCC3)cc2)n1` [CYC-116], the Kd is reported as > 30 µM (inactive). `CN1CCN(c2ccc3nc(-c4c(N)c5c(F)cccc5[nH]c4=O)[nH]c3c2)CC1` [DOVITINIB] was tested, and the Kd was > 30 µM (inactive). For `Cc1cc(Nc2cc(N3CCN(C)CC3)nc(/C=C/c3ccccc3)n2)n[nH]1` [ENMD-2076], the Kd was > 30 µM (inactive). In the case of `CCn1c(-c2nonc2N)nc2c(C#CC(C)(C)O)ncc(OC[C@H]3CCCNC3)c21` [GSK-690693], the Kd is reported as 0.573 µM (active). With `Cc1cn(-c2cc(NC(=O)c3ccc(C)c(Nc4nccc(-c5cccnc5)n4)c3)cc(C(F)(F)F)c2)cn1` [NILOTINIB] the Kd was > 30 µM (inactive). In the case of `OCCn1cc(-c2cnc3nnn(Cc4ccc5ncccc5c4)c3n2)cn1` [PF-04217903], the Kd is reported as > 30 µM (inactive). `CNC(=O)c1ccc(C)c(-n2c(C)cc(OCc3ccc(F)cc3F)c(Br)c2=O)c1` [PH-797804] was tested, and the Kd was > 30 µM (inactive). With `C=CC(=O)N1CCC(Oc2cc3c(Nc4ccc(Cl)c(Cl)c4F)ncnc3cc2OC)CC1` [POZIOTINIB] the Kd was > 30 µM (inactive). For `O=C(Nc1cccc(Cl)c1)Nc1ncc(CCNc2ncnc3ccsc23)s1` [SNS-314], the Kd was > 30 µM (inactive). `Nc1nc(N)c2nc(-c3cccc(O)c3)c(-c3cccc(O)c3)nc2n1` [TG100-115] was tested, and the Kd was > 30 µM (inactive).
